Test results published in patent publication US20240043404A1 (AbbVie Inc., priority 2009, published 2024).

System: RS4;11 cells
Assay: RS4;11 cell viability assay (CellTiter Glo);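 note: acute lymphoblastic leukemia line RS4,11, EC50 derived from percentage of viable cells after treatment relative to untreated controls, cell killing taken as a measure of Bcl-2 inhibition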
Format: cell-based, human
Conditions: Homo sapiens, RS4-11, 48 h, 50,000 cells per well, 10% human serum, 48 hours; read-out: RS4; 11 EC50 Values
Method: The acute lymphoblastic leukemia (ALL) cell line RS4;11 was used as the primary human cell line to assess the cellular activity of Bcl-2 selective agents in vitro and their efficacy in vivo.
Cell cytotoxicity EC50 values were assessed using CellTiter Glo (Promega) according to the manufacturer's recommendations. The EC50 values were determined as a percentage of viable cells following treatment compared to the untreated control cells.

SMILES	EC50 [nM]
O=C(NS(=O)(=O)c1ccc(NCC2CCOCC2)c([N+](=O)[O-])c1)c1ccc(N2CCN(CC3=C(c4ccc(Cl)cc4)CCC4(CCN(C(CF)CF)CC4)C3)CC2)cc1Oc1cnc2[nH]ccc2c1 [Example 265, 4-(4-{[9-(4-chlorophenyl)-3-(1,3-difluoropropan-2-yl)-3-azaspiro[5.5]undec-8-en-8-yl]methyl}piperazin-1-yl)-N-({3-nitro-4-[(tetrahydro-2H-pyran-4-ylmethyl)amino]phenyl}sulfonyl)-2-(1H-pyrrolo[2,3-b]pyridin-5-yloxy)benzamide]	7.17
CC1(C)CCC(CN2CCN(c3ccc(C(=O)NS(=O)(=O)c4cnc(OCC5CCOCC5)c(C(F)(F)F)c4)c(Oc4cnc5[nH]ccc5c4)c3)CC2)=C(c2ccc(Cl)cc2)C1 [Example 297, 4-(4-{[2-(4-chlorophenyl)-4,4-dimethylcyclohex-1-en-1-yl]methyl}piperazin-1-yl)-2-(1H-pyrrolo[2,3-b]pyridin-5-yloxy)-N-{[6-(tetrahydro-2H-pyran-4-ylmethoxy)-5-(trifluoromethyl)pyridin-3-yl]sulfonyl}benzamide]	592
CC1(C)CCC(CN2CCN(c3ccc(C(=O)NS(=O)(=O)c4ccc(NCC5CCOCC5)c(S(=O)(=O)C(F)(F)F)c4)c(Oc4cnc5[nH]ccc5c4)c3)CC2)=C(c2ccc(Cl)cc2)C1 [Example 17, 4-(4-{[2-(4-chlorophenyl)-4,4-dimethylcyclohex-1-en-1-yl]methyl}piperazin-1-yl)-2-(1H-pyrrolo[2,3-b]pyridin-5-yloxy)-N-({4-[(tetrahydro-2H-pyran-4-ylmethyl)amino]-3-[(trifluoromethyl)sulfonyl]phenyl}sulfonyl)benzamide]	475
CC1(C)CCC(CN2CCN(c3ccc(C(=O)NS(=O)(=O)c4cnc(OCC5COCCO5)c(Br)c4)c(Oc4cnc5[nH]ccc5c4)c3)CC2)=C(c2ccc(Cl)cc2)C1 (stereo not shown) [Example 50, N-{[5-bromo-6-(1,4-dioxan-2-ylmethoxy)pyridin-3-yl]sulfonyl}-4-(4-{[2-(4-chlorophenyl)-4,4-dimethylcyclohex-1-en-1-yl]methyl}piperazin-1-yl)-2-(1H-pyrrolo[2,3-b]pyridin-5-yloxy)benzamide]	313
CC1(C)CCC(CN2CCN(c3ccc(C(=O)NS(=O)(=O)c4cnc(OCC5CCOCC5)c(F)c4)c(Oc4cnc5[nH]ccc5c4)c3)CC2)=C(c2ccc(Cl)cc2)C1 [Example 293, 4-(4-{[2-(4-chlorophenyl)-4,4-dimethylcyclohex-1-en-1-yl]methyl}piperazin-1-yl)-N-{[5-fluoro-6-(tetrahydro-2H-pyran-4-ylmethoxy)pyridin-3-yl]sulfonyl}-2-(1H-pyrrolo[2,3-b]pyridin-5-yloxy)benzamide]	287
CC1(C)CCC(CN2CCN(c3ccc(C(=O)NS(=O)(=O)c4ccc(NCCC(F)(F)F)c([N+](=O)[O-])c4)c(Oc4cnc5[nH]ccc5c4)c3)CC2)=C(c2ccc(Cl)cc2)C1 [Example 27, 4-(4-{[2-(4-chlorophenyl)-4,4-dimethylcyclohex-1-en-1-yl]methyl}piperazin-1-yl)-N-({3-nitro-4-[(3,3,3-trifluoropropyl)amino]phenyl}sulfonyl)-2-(1H-pyrrolo[2,3-b]pyridin-5-yloxy)benzamide]	332
CN1CCC(Nc2ccc(S(=O)(=O)NC(=O)c3ccc(N4CCN(CC5=C(c6ccc(Cl)cc6)CC(C)(C)CC5)CC4)cc3Oc3ccc4[nH]ccc4c3)cc2[N+](=O)[O-])CC1 [Example 90, 4-(4-{[2-(4-chlorophenyl)-4,4-dimethylcyclohex-1-en-1-yl]methyl}piperazin-1-yl)-2-(1H-indol-5-yloxy)-N-({4-[(1-methylpiperidin-4-yl)amino]-3-nitrophenyl}sulfonyl)benzamide]	63
O=C(NS(=O)(=O)c1ccc(NCC2CCOCC2)c([N+](=O)[O-])c1)c1ccc(N2CCN(CC3=C(c4ccc(Cl)cc4)CCC(F)(F)C3)CC2)cc1Oc1cnc2[nH]ccc2c1 [Example 321, 4-(4-{[2-(4-chlorophenyl)-5,5-difluorocyclohex-1-en-1-yl]methyl}piperazin-1-yl)-N-({3-nitro-4-[(tetrahydro-2H-pyran-4-ylmethyl)amino]phenyl}sulfonyl)-2-(1H-pyrrolo[2,3-b]pyridin-5-yloxy)benzamide]	18.8
CC1(C)CCC(CN2CCN(c3ccc(C(=O)NS(=O)(=O)c4ccc(NCC5CNCCO5)c([N+](=O)[O-])c4)c(Oc4cnc5[nH]ccc5c4)c3)CC2)=C(c2ccc(Cl)cc2)C1 (stereo not shown) [Example 113, 4-(4-{[2-(4-chlorophenyl)-4,4-dimethylcyclohex-1-en-1-yl]methyl}piperazin-1-yl)-N-({4-[(morpholin-2-ylmethyl)amino]-3-nitrophenyl}sulfonyl)-2-(1H-pyrrolo[2,3-b]pyridin-5-yloxy)benzamide]	1.36
CN1CCC(F)(COc2ccc(S(=O)(=O)NC(=O)c3ccc(N4CCN(CC5=C(c6ccc(Cl)cc6)CC(C)(C)CC5)CC4)cc3Oc3cnc4[nH]ccc4c3)cc2Cl)CC1 [Example 283, N-({3-chloro-4-[(4-fluoro-1-methylpiperidin-4-yl)methoxy]phenyl}sulfonyl)-4-(4-{[2-(4-chlorophenyl)-4,4-dimethylcyclohex-1-en-1-yl]methyl}piperazin-1-yl)-2-(1H-pyrrolo[2,3-b]pyridin-5-yloxy)benzamide]	13.1
CC1(C)CCC(CN2CCN(c3ccc(C(=O)NS(=O)(=O)c4ccc(NC5CN(C6CCOCC6)C5)c([N+](=O)[O-])c4)c(Oc4cnc5[nH]ccc5c4)c3)CC2)=C(c2ccc(Cl)cc2)C1 [Example 116, 4-(4-{[2-(4-chlorophenyl)-4,4-dimethylcyclohex-1-en-1-yl]methyl}piperazin-1-yl)-N-({3-nitro-4-[(1-tetrahydro-2H-pyran-4-ylazetidin-3-yl)amino]phenyl}sulfonyl)-2-(1H-pyrrolo[2,3-b]pyridin-5-yloxy)benzamide]	28.5
CC1(C)CCC(CN2CCN(c3ccc(C(=O)NS(=O)(=O)c4ccc(OCC5CN(C6CC6)CCO5)c([N+](=O)[O-])c4)c(Oc4cnc5[nH]ccc5c4)c3)CC2)=C(c2ccc(Cl)cc2)C1 (stereo not shown) [Example 354, 4-(4-{[2-(4-chlorophenyl)-4,4-dimethylcyclohex-1-en-1-yl]methyl}piperazin-1-yl)-N-({4-[(4-cyclopropylmorpholin-2-yl)methoxy]-3-nitrophenyl}sulfonyl)-2-(1H-pyrrolo[2,3-b]pyridin-5-yloxy)benzamide]	53.2
CN1CCC(F)(COc2ccc(S(=O)(=O)NC(=O)c3ccc(N4CCN(CC5=C(c6ccc(Cl)cc6)CC(C)(C)CC5)CC4)cc3Oc3cnc4[nH]ccc4c3)cc2S(=O)(=O)C(F)(F)F)CC1 [Example 230, 4-(4-{[2-(4-chlorophenyl)-4,4-dimethylcyclohex-1-en-1-yl]methyl}piperazin-1-yl)-N-({4-[(4-fluoro-1-methylpiperidin-4-yl)methoxy]-3-[(trifluoromethyl)sulfonyl]phenyl}sulfonyl)-2-(1H-pyrrolo[2,3-b]pyridin-5-yloxy)benzamide]	52.8
CC(=O)N1CCC(CNc2ccc(S(=O)(=O)NC(=O)c3ccc(N4CCN(CC5=C(c6ccc(Cl)cc6)CC(C)(C)CC5)CC4)cc3Oc3cnc4[nH]ccc4c3)cc2[N+](=O)[O-])C1 (stereo not shown) [Example 153, N-[(4-{[(1-acetylpyrrolidin-3-yl)methyl]amino}-3-nitrophenyl)sulfonyl]-4-(4-{[2-(4-chlorophenyl)-4,4-dimethylcyclohex-1-en-1-yl]methyl}piperazin-1-yl)-2-(1H-pyrrolo[2,3-b]pyridin-5-yloxy)benzamide]	17.2
CC1(C)CCC(CN2CCN(c3ccc(C(=O)NS(=O)(=O)c4cnc(OCC5CCN(CC#N)CC5)c(Cl)c4)c(Oc4cnc5[nH]ccc5c4)c3)CC2)=C(c2ccc(Cl)cc2)C1 [Example 253, N-[(5-chloro-6-{[1-(cyanomethyl)piperidin-4-yl]methoxy}pyridin-3-yl)sulfonyl]-4-(4-{[2-(4-chlorophenyl)-4,4-dimethylcyclohex-1-en-1-yl]methyl}piperazin-1-yl)-2-(1H-pyrrolo[2,3-b]pyridin-5-yloxy)benzamide]	49.6
CC1(C)CCC(CN2CCN(c3ccc(C(=O)NS(=O)(=O)c4ccc(NC[C@H]5CCN(C6COC6)C5)c([N+](=O)[O-])c4)c(Oc4cnc5[nH]ccc5c4)c3)CC2)=C(c2ccc(Cl)cc2)C1 [Example 195, 4-(4-{[2-(4-chlorophenyl)-4,4-dimethylcyclohex-1-en-1-yl]methyl}piperazin-1-yl)-N-{[3-nitro-4-({[(3R)-1-oxetan-3-ylpyrrolidin-3-yl]methyl}amino)phenyl]sulfonyl}-2-(1H-pyrrolo[2,3-b]pyridin-5-yloxy)benzamide]	2.07
CC1(C)CCC(CN2CCN(c3ccc(C(=O)NS(=O)(=O)c4ccc(NCC5CCOCC5)c([N+](=O)[O-])c4)c(Oc4cnc5[nH]ccc5c4)c3)CC2)=C(c2ccc(Cl)cc2)C1 [Example 5, 4-(4-{[2-(4-chlorophenyl)-4,4-dimethylcyclohex-1-en-1-yl]methyl}piperazin-1-yl)-N-({3-nitro-4-[(tetrahydro-2H-pyran-4-ylmethyl)amino]phenyl}sulfonyl)-2-(1H-pyrrolo[2,3-b]pyridin-5-yloxy)benzamide]	12.4
CC1(C)CCC(CN2CCN(c3ccc(C(=O)NS(=O)(=O)c4ccc(OC[C@H]5COCCO5)c([N+](=O)[O-])c4)c(Oc4cnc5[nH]ccc5c4)c3)CC2)=C(c2ccc(Cl)cc2)C1 [Example 30, 4-(4-{[2-(4-chlorophenyl)-4,4-dimethylcyclohex-1-en-1-yl]methyl}piperazin-1-yl)-N-({4-[(2R)-1,4-dioxan-2-ylmethoxy]-3-nitrophenyl}sulfonyl)-2-(1H-pyrrolo[2,3-b]pyridin-5-yloxy)benzamide]	15.3
CC1(C)CCC(CN2CCN(c3ccc(C(=O)NS(=O)(=O)c4cnc(NCC5(F)CCOCC5)c(Cl)c4)c(Oc4cnc5[nH]ccc5c4)c3)CC2)=C(c2ccc(Cl)cc2)C1 [Example 242, N-[(5-chloro-6-{[(4-fluorotetrahydro-2H-pyran-4-yl)methyl]amino}pyridin-3-yl)sulfonyl]-4-(4-{[2-(4-chlorophenyl)-4,4-dimethylcyclohex-1-en-1-yl]methyl}piperazin-1-yl)-2-(1H-pyrrolo[2,3-b]pyridin-5-yloxy)benzamide]	223

Same assay, conditions: Homo sapiens, RS4-11, Table 5, direct comparison Z=N with corresponding analogs Z=C; read-out: RS4; 11 EC50

SMILES	EC50 [nM]
CC1(C)CCC(CN2CCN(c3ccc(C(=O)NS(=O)(=O)c4ccc(NCC5CCOCC5)c(S(=O)(=O)C(F)(F)F)c4)c(Oc4cnc5[nH]ccc5c4)c3)CC2)=C(c2ccc(Cl)cc2)C1 [Example 17, 4-(4-{[2-(4-chlorophenyl)-4,4-dimethylcyclohex-1-en-1-yl]methyl}piperazin-1-yl)-2-(1H-pyrrolo[2,3-b]pyridin-5-yloxy)-N-({4-[(tetrahydro-2H-pyran-4-ylmethyl)amino]-3-[(trifluoromethyl)sulfonyl]phenyl}sulfonyl)benzamide]	475
CN1CCC(Nc2ccc(S(=O)(=O)NC(=O)c3ccc(N4CCN(CC5=C(c6ccc(Cl)cc6)CC(C)(C)CC5)CC4)cc3Oc3ccc4[nH]ccc4c3)cc2[N+](=O)[O-])CC1 [Example 90, 4-(4-{[2-(4-chlorophenyl)-4,4-dimethylcyclohex-1-en-1-yl]methyl}piperazin-1-yl)-2-(1H-indol-5-yloxy)-N-({4-[(1-methylpiperidin-4-yl)amino]-3-nitrophenyl}sulfonyl)benzamide]	63
CC1(C)CCC(CN2CCN(c3ccc(C(=O)NS(=O)(=O)c4ccc(NCC5CCOCC5)c([N+](=O)[O-])c4)c(Oc4cnc5[nH]ccc5c4)c3)CC2)=C(c2ccc(Cl)cc2)C1 [Example 5, 4-(4-{[2-(4-chlorophenyl)-4,4-dimethylcyclohex-1-en-1-yl]methyl}piperazin-1-yl)-N-({3-nitro-4-[(tetrahydro-2H-pyran-4-ylmethyl)amino]phenyl}sulfonyl)-2-(1H-pyrrolo[2,3-b]pyridin-5-yloxy)benzamide]	12
